From patent US7732617B2, “Tocopherol derivatives and uses thereof” (Brock University, priority 2007, dated 2010)

Assays:
[1] = test system: HepG2/C3A; assay: Cell protein and monolayer morphology of HepG2/C3A cultures; type: cell-based, human; conditions: 48 hours
Description: (§1) (R)-2-(9-(1H-1,2,4-triazol-1-yl)nonyl)-2,5,7,8-tetramethylchroman-6-ol and γ-tocopherol stock solutions were prepared in ethanol. Confluent cultures of the human heptoblastoma cell line, HepG2/C3A, were pre-incubated with varying concentrations of (R)-2-(9-(1H-1,2,4-triazol-1-yl)nonyl)-2,5,7,8-tetramethylchroman-6-ol or ethanol for 4 hours, followed by addition of 25 μM γ-tocopherol. After 48 hours, culture media was collected and analyzed for ω-oxidation products of γ-tocopherol (the 3′- and 5′-carboxychromanols) by GC-MS, using d9-3′-carboxyethylchromanol as internal standard (Sontag T J et al. (2002) J Biol Chem 277: 25290-25296).
There was no effect of (R)-2-(9-(1H-1,2,4-triazol-1-yl)nonyl)-2,5,7,8-tetramethylchroman-6-ol on cell protein and all monolayers appeared normal in morphology.

[2] = target: T1, tocopherol hydroxylase activity in HepG2/C3A cultures (Homo sapiens, UniProt P78329); assay: Metabolism of γ-tocopherol (ω-oxidation products by GC-MS) in HepG2/C3A hepatoblastoma cultures; type: cell-based; conditions: 48 hours; for EC50: 4 hour pre-incubation, 25 μM γ-tocopherol as substrate, read-out: concentration required to inhibit tocopherol hydroxylase activity by 50% (EC50)
T1 construct: Confluent cultures of the human heptoblastoma cell line, HepG2/C3A; endogenous in cells; host or cells: HepG2/C3A
T1 sequence (P78329 5-520): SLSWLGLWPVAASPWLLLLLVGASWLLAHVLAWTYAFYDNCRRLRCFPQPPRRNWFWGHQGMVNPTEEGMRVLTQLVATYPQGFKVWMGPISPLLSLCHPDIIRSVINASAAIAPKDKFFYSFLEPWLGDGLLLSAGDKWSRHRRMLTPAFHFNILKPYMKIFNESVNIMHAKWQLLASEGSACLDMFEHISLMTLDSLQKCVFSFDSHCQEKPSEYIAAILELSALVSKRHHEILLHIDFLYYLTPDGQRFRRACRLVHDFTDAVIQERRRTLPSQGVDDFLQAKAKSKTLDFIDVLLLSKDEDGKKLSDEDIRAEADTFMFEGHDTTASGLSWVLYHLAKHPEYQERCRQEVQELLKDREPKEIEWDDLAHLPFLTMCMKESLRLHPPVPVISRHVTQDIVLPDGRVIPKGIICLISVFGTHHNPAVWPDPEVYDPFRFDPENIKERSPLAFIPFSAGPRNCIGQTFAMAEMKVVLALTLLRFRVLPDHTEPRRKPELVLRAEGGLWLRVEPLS
Description: as §1
The effect of the triazole compounds were tested in human hepatoblastoma cell culture as described in Example 1, i.e. using 25 μM γ-tocopherol as substrate and 4 hour pre-incubation with the synthetic inhibitors.

[3] = test system: tocopherol hydroxylase; assay: Tissue enrichment in δ-tocopherol in mice in vivo (diet feeding, GC-MS); conditions: 10 days
Description: Two groups of mice (n=3) were fed a chow diet enriched with δ-tocopherol (6000 mg per kg diet), with or without 500 mg per kg (R)-2-(9-(1H-1,2,4-triazol-1-yl)nonyl)-2,5,7,8-tetramethylchroman-6-ol. After 10 days on diet, mice were fasted for 5 hrs, euthanized, and tocopherol concentrations determined in plasma, liver and bile, using GC-MS procedures and d9-3′-carboxyethylchromanol as internal standard (Sontag T J et al.).
Therefore data shown in FIG. 2 are presented as the δ-tocopherol/α-tocopherol ratio, where an increase in the ratio reflects enrichment in δ-tocopherol relative to α-tocopherol.

[4] = 500 mg per kg diet with δ-tocopherol 6000 mg per kg diet, versus control, P<0.05

Compound	effect on cell protein [1]	morphology of monolayers [1]	EC50 [2] [nM]	Tocopherol hydroxylase activity ([2]; at compound concentrations above 10 nM, 25 μM γ-tocopherol)	δ-tocopherol/α-tocopherol ratio in mouse liver [3, 4]	α-tocopherol status ([3]; mice, 500 mg per kg diet)	δ-tocopherol/α-tocopherol ratio in bile [3, 4]
Cc1c(C)c2c(c(C)c1O)CC[C@@](C)(CCCCCCCCCn1cncn1)O2 [(R)-2-(9-(1H-1,2,4-triazol-1-yl)nonyl)-2,5,7,8-tetramethylchroman-6-ol]	no effect	normal	~1	completely abolished	doubling	no evidence that α-tocopherol status was affected	
Cc1c(C)c2c(c(C)c1O)CC[C@@](C)(CCCCCCCCCn1ccnc1)O2 [(R)-2-(9-(1H-imidazol-1-yl)nonyl)-2,5,7,8-tetramethylchroman-6-ol]			1 to 2				tripled
